From patent publication US8691855B2, “Compounds, isomer thereof, or pharmaceutically acceptable salts thereof as vanilloid receptor antagonist and pharmaceutical compositions containing the same” (Amorepacific Corporation, priority 2008, dated 2014) come the findings set out here.

Structures are written as SMILES. A value given as a limit tells only on which side of the number the result lay.

T1 sequence (O35433 whole entry): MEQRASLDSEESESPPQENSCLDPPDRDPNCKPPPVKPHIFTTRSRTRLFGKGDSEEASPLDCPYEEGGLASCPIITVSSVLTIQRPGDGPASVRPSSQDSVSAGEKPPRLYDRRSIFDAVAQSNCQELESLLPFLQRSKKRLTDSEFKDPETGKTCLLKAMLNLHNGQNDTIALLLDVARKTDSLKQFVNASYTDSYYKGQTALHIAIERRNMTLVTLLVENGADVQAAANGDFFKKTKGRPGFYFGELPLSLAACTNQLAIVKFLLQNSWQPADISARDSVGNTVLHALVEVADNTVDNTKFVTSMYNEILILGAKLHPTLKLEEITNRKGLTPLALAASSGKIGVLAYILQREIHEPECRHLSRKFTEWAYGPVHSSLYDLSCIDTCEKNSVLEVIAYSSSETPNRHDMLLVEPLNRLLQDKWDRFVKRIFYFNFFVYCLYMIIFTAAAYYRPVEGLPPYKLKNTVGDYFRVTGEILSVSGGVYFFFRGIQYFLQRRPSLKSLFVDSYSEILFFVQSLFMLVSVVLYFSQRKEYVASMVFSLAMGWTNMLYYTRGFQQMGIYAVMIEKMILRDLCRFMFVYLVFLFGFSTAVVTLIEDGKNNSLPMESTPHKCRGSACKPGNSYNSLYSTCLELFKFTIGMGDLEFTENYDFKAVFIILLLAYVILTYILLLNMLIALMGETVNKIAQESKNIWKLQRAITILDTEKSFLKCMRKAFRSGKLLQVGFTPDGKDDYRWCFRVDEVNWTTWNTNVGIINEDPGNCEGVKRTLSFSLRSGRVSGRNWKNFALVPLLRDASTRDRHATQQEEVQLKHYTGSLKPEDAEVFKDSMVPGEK

One assay concerns the target T1, vanilloid receptor (Rattus norvegicus, UniProt O35433).
T1 construct: DRG nerve cells from the primary culture of 2 days were equilibrated; endogenous in cells; host or cells: primary culture of dorsal root ganglion neurons from neonatal SD rats
Put plainly: 45Ca influx test (antagonist calcium uptake test) in rat DRG neurons stimulated with capsaicin. As to conditions: DRG neuron; @1 μM; neonatal SD rat DRG neurons; capsaicin 0.5 μM; read-out: Antagonist Calcium Uptake Test, percent inhibition of capsaicin response. Type of assay: cell-based. Here is the method: 1) Separation of spinal dorsal root ganglia (DRG) in newborn rats and primary culture thereof
Neonatal (2-3 clay old or younger than 2-3 day old) SD rats were put in ice for 5 minutes to anesthetize and disinfected with 70% ethanol. DRG of all part of spinal cord were dissected (Wood et al., 1988, J. Neurosci. 8, pp 3208-3220) and collected in DME/F12 medium to which 1.2 g/l sodium bicarbonate and 50 mg/l gentamycin were added. The DRG were incubated sequentially at 37° C. for 30 mins in 200 U/ml collagenase and 2.5 mg/ml trypsin, separately. The ganglia were washed twice with DME/F12 medium supplemented with 10% horse serum, triturated through a fire-polished Pasteur pipette, filtered through Nitex 80 membrane to obtain single cell suspension and the suspension was washed once more. This was subjected to centrifugation, then resuspended in cell culture medium at certain level of cell density. As the cell culture medium, DME/F12 medium supplemented with 10% horse serum was diluted with identical medium conditioned by C6 glioma cells 2 clays on a confluent monolayer (1:1), and NGF (Nerve Growth Factor) was added to adjust 200 ng/ml as final concentration. After the cells were grown 2 days in medium where cytosine arabinoside (Ara-C, 100 μM) was added to kill dividing nonneuronal cells, medium was changed to one without Ara-C. The resuspended cells were plated at a density of 1500-2000 neurons/well onto Terasaki plates previously coated with 10 μg/ml poly-D-ornithine.
2) ^45Ca Influx Experiments
DRG nerve cells from the primary culture of 2 days were equilibrated by washing 4 times with HEPES (10 mM, pH 7.4)-buffered Ca^2+, Mg^2+-free HBSS (H-HBSS). The solution in each well was removed from the individual well. Medium containing the test compound plus capsaicin (final concentration 0.5 μM) and ^45Ca (final concentration 10 μCi/ml) in H-HBSS was added to each well and incubated at room temperature for 10 nuns. Terasaki plates were washed five times with H-HBSS and dried at room temperature. To each well, 0.3% SDS (10 μl) was added to elute ^45Ca. After the addition of scintillation cocktail of into each well, the amount of ^45Ca influx into neuron was measured by counting radioactivity. Antagonistic activities of test compounds against vanilloid receptor were calculated as percent of the inhibition of maximal response of capsaicin at a concentration of 0.5 μM.
With `C[C@@H](NC(=O)c1coc(Oc2cccc3c2CCCC3)n1)c1cc(F)c(NS(C)(=O)=O)c(F)c1` (stereo in doubt) [Example 55, 2-(5,6,7,8-Tetrahydro-naphthalen-1-yloxy)-oxazole-4-carboxylic acid [1-(3,5-difluoro-4-methanesulfonylamino-phenyl)-ethyl]-amide], the inhibition at 1 µM was found to be 74%. For `C[C@@H](NC(=O)c1ccc(-c2cc(C3CC3)cc(C(F)(F)F)c2)o1)c1cc(F)c(NS(C)(=O)=O)c(F)c1` [Example 95, 5-(3-Cyclopropyl-5-trifluoromethyl-phenyl)-furan-2-carboxylic acid [1-(3,5-difluoro-4-methanesulfonylamino-phenyl)-ethyl]-amide], the inhibition at 1 µM was 66%.

The assay is the same for the next values; noted with them: DRG neuron; @3 μM; neonatal SD rat DRG neurons; capsaicin 0.5 μM; read-out: Antagonist Calcium Uptake Test, percent inhibition of capsaicin response.
On to `C[C@@H](NC(=O)c1coc(-c2ccc(C(F)(F)F)cc2)n1)c1cc(F)c(NS(C)(=O)=O)c(F)c1` [Example 74, 2-(4-Trifluoromethyl-phenyl)-oxazole-4-carboxylic acid [1-(3,5-difluoro-4-methanesulfonylamino-phenyl)-ethyl]-amide], for which the inhibition at 3 µM is 89%.

Consider `Cc1cc(CNC(=O)c2ccc(-c3cccc(C(F)(F)F)c3)o2)cc(F)c1NS(C)(=O)=O` [Example 103, 5-(3-Trifluoromethyl-phenyl)-furan-2-carboxylic acid 3-fluoro-4-methanesulfonylamino-5-methyl-benzylamide], for which the inhibition at 3 µM stood at 84%.

The same assay, now with this note: neonatal SD rat DRG neurons; capsaicin 0.5 μM; 45Ca.
For the compound `Cc1cc(CNC(=O)c2ccc(-c3cccc(C(F)(F)F)c3)o2)ccc1NS(C)(=O)=O` [Example 112, 5-(3-Trifluoromethyl-phenyl)-furan-2-carboxylic acid 4-methanesulfonylamino-3-methyl-benzylamide], the IC50 came to 220 nM. In the case of `C[C@@H](NC(=O)c1coc(-c2ccc(F)c(C(F)(F)F)c2)n1)c1cc(F)c(NS(C)(=O)=O)c(F)c1` [Example 92, 2-(4-Fluoro-3-trifluoromethyl-phenyl)-oxazole-4-carboxylic acid [1-(3,5-difluoro-4-methanesulfonylamino-phenyl)-ethyl]-amide], the IC50 was 1700 nM.

For the compound `C[C@@H](NC(=O)c1coc(Oc2cccc3c2OC2(CCCC2)O3)n1)c1cc(F)c(NS(C)(=O)=O)c(F)c1` [Example 49, 2-(2,3-Dihydroxy-phenoxy)-oxazole-4-carboxylic acid [1-(3,5-difluoro-4-methanesulfonylamino-phenyl)-ethyl]-amide, cyclopentanone ketal], the IC50 was determined as 600 nM. Consider `C[C@@H](NC(=O)c1coc(-c2cccc(Cl)c2Cl)n1)c1cc(F)c(NS(C)(=O)=O)c(F)c1` [Example 85, 2-(2,3-Dichloro-phenyl)-oxazole-4-carboxylic acid [1-(3,5-difluoro-4-methanesulfonylamino-phenyl)-ethyl]-amide], for which the IC50 turned out to be 1200 nM. On the same count and under the same terms, next, `C[C@@H](NC(=O)c1coc(-c2cccc(Cl)c2)n1)c1cc(F)c(NS(C)(=O)=O)c(F)c1` [Example 82, 2-(3-Chloro-phenyl)-oxazole-4-carboxylic acid [1-(3,5-difluoro-4-methanesulfonylamino-phenyl)-ethyl]-amide]: 650 nM; `CC(C)c1cc(Oc2nc(C(=O)N[C@H](C)c3cc(F)c(NS(C)(=O)=O)c(F)c3)co2)cc(C(F)(F)F)c1` [Example 40, 2-(3-Isopropyl-5-trifluoromethyl-phenoxy)-oxazole-4-carboxylic acid [1-(3,5-difluoro-4-methanesulfonylamino-phenyl)-ethyl]-amide]: 1100 nM. Still for that read-out and setting: next, `Cc1cc(C)cc(-c2nc(C(=O)N[C@H](C)c3cc(F)c(NS(C)(=O)=O)c(F)c3)co2)c1` [Example 99, 2-(3,5-Dimethyl-phenyl)-oxazole-4-carboxylic acid [1-(3,5-difluoro-4-methanesulfonylamino-phenyl)-ethyl]-amide]: 2000 nM. With `CS(=O)(=O)Nc1c(F)cc(CNC(=O)c2ccc(-c3cccc(C(F)(F)F)c3)o2)cc1C(F)(F)F` [Example 113, 5-(3-Trifluoromethyl-phenyl)-furan-2-carboxylic acid 4-methanesulfonylamino-3-fluoro-5-trifluomethyl-benzylamide], the IC50 was 1400 nM. Still for that read-out and setting: next, `C[C@@H](NC(=O)c1coc(NCC2CCCCC2)n1)c1cc(F)c(NS(C)(=O)=O)c(F)c1` [Example 13, 2-(Cyclohexylmethyl-amino)-oxazole-4-carboxylic acid [1-(3,5-difluoro-4-methanesulfonylamino-phenyl)-ethyl]-amide]: 1400 nM; `C[C@@H](NC(=O)c1ccc(-c2cccc(C(F)(F)F)c2)s1)c1cc(F)c(NS(C)(=O)=O)c(F)c1` (stereo in doubt) [Example 73, 5-(3-Trifluoromethyl-phenyl)-thiophene-2-carboxylic acid [1-(3,5-difluoro-4-methanesulfonylamino-phenyl)-ethyl]-amide]: 10500 nM. Same read-out and setting: next, `CCCc1cc(C(F)(F)F)ccc1Oc1nc(C(=O)N[C@H](C)c2cc(F)c(NS(C)(=O)=O)c(F)c2)co1` [Example 33, 2-(2-Propyl-4-trifluoromethyl-phenoxy)-oxazole-4-carboxylic acid [1-(3,5-difluoro-4-methanesulfonylamino-phenyl)-ethyl]-amide]: 4900 nM. On the same count and under the same terms, next, `CC(C)c1cccc(Oc2nc(C(=O)NCc3cc(F)c(NS(C)(=O)=O)c(F)c3)co2)c1` [Example 9, 2-(3-Isopropyl-phenoxy)-oxazole-4-carboxylic acid 3,5-difluoro-4-methanesulfonylamino-benzylamide]: 440 nM; `CCc1cc(-c2ccc(C(=O)N[C@H](C)c3cc(F)c(NS(C)(=O)=O)c(F)c3)o2)cc(C(F)(F)F)c1` [Example 116, 5-(3-Ethyl-5-trifluoromethyl-phenyl)-furan-2-carboxylic acid [1-(3,5-difluoro-4-methanesulfonylamino-phenyl)-ethyl]-amide]: 160 nM; `CS(=O)(=O)Nc1c(F)cc(CNC(=O)c2csc(Oc3ccc(C(F)(F)F)cc3)n2)cc1F` [Example 14, 2-(4-Trifluoromethyl-phenoxy)-thiazole-4-carboxylic acid 3,5-difluoro-4-methanesulfonylamino-benzylamide]: 1500 nM.

For the compound `C[C@@H](NC(=O)c1coc(Oc2cc(C(F)(F)F)cc(C(F)(F)F)c2)n1)c1cc(F)c(NS(C)(=O)=O)c(F)c1` [Example 36, 2-(3,5-Bis-trifluoromethyl-phenoxy)-oxazole-4-carboxylic acid [1-(3,5-difluoro-4-methanesulfonylamino-phenyl)-ethyl]-amide], the IC50 came out at 1300 nM. Take `C[C@@H](NC(=O)c1coc(-c2cc(Cl)cc(Cl)c2)n1)c1cc(F)c(NS(C)(=O)=O)c(F)c1` [Example 83, 2-(3,5-Dichloro-phenyl)-oxazole-4-carboxylic acid [1-(3,5-difluoro-4-methanesulfonylamino-phenyl)-ethyl]-amide]: the IC50 stood at 880 nM. Consider `CS(=O)(=O)Nc1c(F)cc(CNC(=O)c2csc(Cc3ccc(F)c(F)c3)n2)cc1F` [Example 12, N-[1-(3,5-Difluoro-4-methanesulfonylamino)-benzyl]-2-(3,4-difluorobenzyl)-thiazole-4-amide], for which the IC50 was more than 10000 nM.

Consider `C[C@@H](NC(=O)c1coc(Nc2cccc(C(F)(F)F)c2)n1)c1cc(F)c(NS(C)(=O)=O)c(F)c1` [Example 44, 2-(3-Trifluoromethyl-phenylamino)-oxazole-4-carboxylic acid [1-(3,5-difluoro-4-methanesulfonylamino-phenyl)-ethyl]-amide], for which the IC50 was determined as 5500 nM.

As to `C[C@@H](NC(=O)c1coc(Oc2ccc(C(C)(C)C)cc2)n1)c1cc(F)c(NS(C)(=O)=O)c(F)c1` [Example 7, 2-(4-tert-Butyl-phenoxy)-oxazole-4-carboxylic acid [1-(3,5-difluoro-4-methanesulfonylamino-phenyl)-ethyl]-amide], the half-inhibitory concentration (IC50) was 4300 nM.

For `CC(=O)c1cccc(-c2nc(C(=O)N[C@H](C)c3cc(F)c(NS(C)(=O)=O)c(F)c3)co2)c1` [Example 76, 2-(3-Acetyl-phenyl)-oxazole-4-carboxylic acid [1-(3,5-difluoro-4-methanesulfonylamino-phenyl)-ethyl]-amide], the IC50 was more than 10000 nM.
